Test results: article PMC7002685, “Inhibition of vascular calcification by inositol phosphates derivatized with ethylene glycol oligomers” (Nature Communications, 2020)
“And” between values parts separate entries of the source, which are not always exact repeats. Identical values can stand only once. One block for each molecule: values may come before it.

Tests used:
[1] = biological target: CPP2; assay: Competitive 18F-NaF binding assay on CPPs; set-up: species or system human
Method: A ^18F-NaF-based competitive binding assay was developed to indirectly assess the inhibitor affinity (IC50) to CPPs. The uptake mechanism of ^18F-NaF, a marker of micro-calcification activity by chemisorption onto hydroxyapatite crystals, is contingent on the rapid exchange of hydroxyl (OH^−) groups present on the hydroxyapatite surface (Ca5(PO4)3(OH)) by ^18F^− to form fluoroapatite (Ca5(PO4)3^18F)[34],[54].
Triplicate aliquots of CPP2s (20 µg Ca/mL) in 100 μL assay buffer (100 mM HBS, pH 7.4 (RT)) were incubated for 1 h at RT in the presence of increasing concentrations of compounds in 50 μL Milli-Q water and ^18F-NaF (1 nM) in 50 μL assay buffer, resulting in a total incubation volume of 200 μL (^18F-NaF was prepared using a FASTlab synthesizer (GE Healthcare, Little Chalfont, UK) and commercially available ^18F-NaF cassettes (GE Healthcare)). Maximum radiotracer binding was determined by incubating CPP2s with ^18F-NaF (1 nM) only. The reaction was terminated by rapid filtration through a SOLAμ™ SPE plate (HRP 2 mg/mL 96-well plate, 22 μm; Thermo Fisher Scientific). SPE individual column matrices were washed twice rapidly in assay buffer and radioactivity on the filters determined by an automatic gamma counter (Wizard2 Gamma Counter, Perkin Elmer, Waltham, MA, USA). […] IC50 is the concentration of […] that gives a response half way between the bottom and top parts of the curve. ^18F-NaF micro-PET/computed tomography (micro-PET/CT) was employed for ex vivo analysis of (OEG2)2-IP4’s engagement to target calcified human tissue explants, as described previously. […] Following incubations, samples were washed twice in 0.1 M PBS (1 min per wash) and mounted on a Petri dish for micro-PET/CT imaging (nanoPET/CT, Mediso, Budapest, Hungary). In total, seven samples from the femoral arteries of three patients with ischemic peripheral disease and three samples from native aortic valves of three patients undergoing valve replacement surgery were used. All samples were collected at the time of surgery and stored in 4% paraformaldehyde at RT until further use. All patients gave their written, informed consent. All procedures had local ethical approval (06/S0703/110, 12/WS/0227, 09/S0703/118, and 12/NW/0036). All studies were approved by East and West Scotland Research Ethics Committees, and all experiments were conducted according to the principles expressed in the Declaration of Helsinki.

[2] = system: transformation of CPP1 to CPP2 in pooled human serum; assay: In vitro serum calcification propensity (T50) screening assay; type: biochemical; set-up: key to T50: T50 in minutes (time to 50% CPP phase transition); conditions: for T50: one value per experiment; for activity/unit mass: mean c350 x mw (Na salt); for concentration upon which a T50 of 350 min is reached (c350), mean: mean of n experiments; for concentration upon which a T50 of 350 min is reached (c350), single experiment: one value per experiment (lab journal reference E05-E40)
Method: The compounds were ranked for calcification inhibition activity using a nanoparticle-based test, developed for risk stratification, which measures the propensity for calcification in patient serum. […] The time, after which 50% of CPP phase transition occurred (T50), was assessed by time-resolved spectrophotometry at 550 nm (Supplementary Fig. 1a).
The screening assay was performed as described previously. In brief, pooled human serum (H4522, Sigma-Aldrich) stored at −20 °C was thawed at 37 °C, centrifuged (10,000 × g, and 4 °C, 30 min) (5427R, Eppendorf, Switzerland), and sterile filtered (0.22 μm filter, Millipore, Merck KGaA) to remove potential cryoprecipitates (cleared human serum). The calcium solution was 40 mM CaCl2 (102382, Merck KGaA) in HBS, pH 7.4 (RT) (100 mM HEPES (H3375, Sigma-Aldrich) and 140 mM NaCl (1734712, Fisher Scientific, Hampton, NH, USA)). […] All salt solutions and buffers were double sterile filtered (0.22 µm) and pre-warmed to 37 °C prior to use. […] The plate was sealed with an adhesive film and the absorption at 550 nm was measured every 3 min with 1 min in-between shaking for a total of 300 cycles at 37 °C using the infinite M200 microplate reader (Tecan, Männedorf, Switzerland). An A550 vs. time graph was generated and T50 (min) (time at half-maximum transition from CPP1 to CPP2) values were derived by sigmoidal curve fit using Prism 8 (nonlinear regression in the log(agonist) vs. response–variable slope (four parameter mode) using the robust fit fitting method, GraphPad Software, San Diego, CA, USA). Activities between compounds were compared by generating a T50 (min) vs. concentration (µM) graph, calculating nonlinear regression and deriving the concentration required to delay T50 to 350 min (c350) using a standard equation for the dose–response curve, Eq. (1), whereby x = [compound], y = time (min), bottom = baseline response, top = maximum response, T50 = [drug] that leads to half-maximum response, and the hill slope is a factor that describes the steepness of the curve.1 y= bottom+top - bottom/1+T50/x^hillslope.

[3] = Serum calcification propensity assay after 4.5 h incubation in enzymatically active human serum; conditions: compound at c350 concentration, 37 °C; individual donors, Fig. 2e

IC50 ([1]; CPP2 20 µg Ca/mL, 18F-NaF 1 nM, 1 h RT, read-out: IC50 (reduction of 18F binding to CPP)): 900 nM
18F-NaF percentage binding to CPP2 ([1]; concentration 0.75 (unit not given)): 116.838% and 100.543% and 117.872%
18F-NaF percentage binding to CPP2 ([1]; concentration 2.5 (unit not given)): 108.056% and 108.706% and 117.126%
18F-NaF percentage binding to CPP2 ([1]; concentration 7.5 (unit not given)): 96.3113% and 120.411% and 97.661%
18F-NaF percentage binding to CPP2 ([1]; concentration 25 (unit not given)): 95.6416% and 106.619%
18F-NaF percentage binding to CPP2 ([1]; concentration 75 (unit not given)): 102.247% and 106.699% and 103.897%
18F-NaF percentage binding to CPP2 ([1]; concentration 250 (unit not given)): 99.9294% and 104.809% and 85.4465%
18F-NaF percentage binding to CPP2 ([1]; concentration 1750 (unit not given)): 35.8884% and 43.4211% and 42.6767%
18F-NaF percentage binding to CPP2 ([1]; concentration 2500 (unit not given)): 62.647% and 51.2379% and 44.8192%
18F-NaF percentage binding to CPP2 ([1]; concentration 7500 (unit not given)): 62.7542% and 48.4658% and 45.2944%
18F-NaF percentage binding to CPP2 ([1]; concentration 25000 (unit not given)): 44.4078% and 32.6852% and 32.8795%
18F-NaF percentage binding to CPP2 ([1]; concentration 75000 (unit not given)): 35.0722% and 24.2405% and 29.2905%
18F-NaF percentage binding to CPP2 ([1]; concentration 250000 (unit not given)): 26.7145% and 19.4967% and 18.0105%
18F-NaF percentage binding to CPP2 ([1]; concentration 750000 (unit not given), replicates Fig. 2c): 36.7136% and 30.5284% and 26.7151%
Structure (SMILES): NCCCC(O)(P(=O)(O)O)P(=O)(O)O [Alendronate, alendronate]
T50 ([2]; concentration 0.3 μM): 213.8 and 221.6 and 208.733 and 230.4 and 221.333 and 196.833
T50 ([2]; concentration 1 μM): 222.967 and 230.933 and 225.333 and 238.6 and 229.833 and 230.667
T50 ([2]; concentration 3 μM): 261.733 and 253 and 230.467 and 264.833 and 255.1 and 255.367
T50 ([2]; concentration 10 μM): 345.567 and 345.233 and 327.433 and 380.1 and 360.1 and 348.633
T50 ([2]; concentration 30 μM): 770.3 and 707.4
activity/unit mass [2]: 2.69 mg/L
concentration upon which a T50 of 350 min is reached (c350), mean [2]: 9.9 µM
concentration upon which a T50 of 350 min is reached (c350), single experiment [2]: 9.9 µM and 10.3 µM and 8.3 µM and 9.4 µM and 10.2 µM

Structure (SMILES): COCCOCCOCCOCCOCCOCCOCCOCCOCCOCCOCCO[C@@H]1[C@@H](OP(=O)(O)O)[C@H](OCCOCCOCCOCCOCCOCCOCCOCCOCCOCCOCCOC)[C@@H](OP(=O)(O)O)[C@@H](OP(=O)(O)O)[C@H]1OP(=O)(O)O [(OEG11)2-IP4, 4,6-Di-O-(methoxy-undecaethyleneglycol)-myo-inositol-1,2,3,5-tetrakis(phosphate)]
ΔT50 after 4.5 h vs 0 h incubation in enzymatically active human serum [3]: -7 min and 2 min and 28 min and -24 min
T50 ([2]; concentration 0.3 μM): 225.5 and 216.3 and 217.233
T50 ([2]; concentration 1 μM): 254.967 and 243.067 and 240.833
T50 ([2]; concentration 3 μM): 330.833 and 306.033 and 295.1
T50 ([2]; concentration 5 μM): 429.233 and 399.933 and 420.733
fold greater molar activity in delaying serum calcification propensity than IP6 ([2]; from c350): ~10 fold
activity/unit mass [2]: 6.28 mg/L
concentration upon which a T50 of 350 min is reached (c350), mean [2]: 3.8 µM
concentration upon which a T50 of 350 min is reached (c350), single experiment [2]: 3.4 µM and 3.9 µM
